Experimental data from patent publication US8383637B2, “2-amino-quinazoline derivatives useful as inhibitors of β-secretase (BACE)” (Jansssen Pharmaceutica N.V., priority 2004, dated 2013).

Columns and labels:
Type in all cases: biochemical
[1] = target: T1, β-secretase(BACE) (Homo sapiens, UniProt P56817); test: BACE Assay-2 (FS1 substrate, IC50 and Ki); conditions: procedure of Example 159, FS1 substrate; for Ki: read-out: Ki μM (159)
T1 construct: purchased Panvera

[2] = target: T1, β-secretase(BACE); test: BACE % Inhibition Assay ((Aedens)-[…]-(Dabcyl K-amide) substrate); conditions: % error ±10%; for inhibition at 3 µM / inhibition at 10 µM: read-out: % Inhibition
Method: The substrate stock solution was prepared in DMSO as a 10 mg/mL solution. The substrate working solution was prepared by diluting the 10 mg/mL stock solution with substrate assay buffer to a final concentration of 300 μg/mL. The β-secretase (BACE) working solution was prepared by diluting a 0.83 mg/mL BACE stock solution with enzyme assay buffer to a final concentration of 4 μg/mL.
Test compounds were dissolved in DMSO to 10 mM.
The screening procedure for this assay was as follows: 15 μL of BACE working solution was pipetted into each well of a 96-well plate. To each well was then pipetted 2 μL of test compound at the selected concentration. Test compound and BACE were then mixed with a pipettor and incubated for 20 min at room temperature. To each well was then added 10 μL of the substrate working solution. The plates were then incubated for 1 hour at room temperature.
The procedure for the blank was as follows. 15 μL of assay buffer was pipetted into each well to be used as a blank control. To each well was then added 2 μL of vehicle and 10 μL of substrate working solution. The plates were then incubated for 1 hour at room temperature.
The procedure for the positive control was as follows: 15 μl of BACE working solution was pipetted into each well to be used as a positive control. To each well was then pipetted 2 μL of vehicle. Vehicle and BACE were then mixed with a pipettor and incubated for 20 min at room temperature. To each well was then added 10 μL of the substrate working solution. The plates were then incubated for 1 hour at room temperature.
For test compounds, % inhibition was determined at each concentration as follows: […]

[3] = target: T1, β-secretase(BACE); test: BACE Assay-1 (MCA-substrate, IC50); conditions: procedure of Example 158; read-out: IC50 μM (158)
In short: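 Human BACE (work solution 10 μg/mL) with MCA-peptide substrate (stock 2.0 mg/mL) in 0.05 M citrate buffer, pH 5.0, with PEG8000. Fluorescence read at T0 and T60; compounds tested at multiple concentrations and IC50 calculated from these readings.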

[4] = target: T1, β-secretase(BACE); test: BACE FS1% Inhibition Assay; conditions: FS1 substrate
In short: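 Percent inhibition at each tested concentration, referenced to enzyme-free blank and vehicle-only positive control. Reaction: compound and BACE (4 μg/mL working stock) mixed 20 min at room temperature before FS1 substrate (300 μg/mL working stock), then 1 h at room temperature.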

T1 sequence (P56817 46-501): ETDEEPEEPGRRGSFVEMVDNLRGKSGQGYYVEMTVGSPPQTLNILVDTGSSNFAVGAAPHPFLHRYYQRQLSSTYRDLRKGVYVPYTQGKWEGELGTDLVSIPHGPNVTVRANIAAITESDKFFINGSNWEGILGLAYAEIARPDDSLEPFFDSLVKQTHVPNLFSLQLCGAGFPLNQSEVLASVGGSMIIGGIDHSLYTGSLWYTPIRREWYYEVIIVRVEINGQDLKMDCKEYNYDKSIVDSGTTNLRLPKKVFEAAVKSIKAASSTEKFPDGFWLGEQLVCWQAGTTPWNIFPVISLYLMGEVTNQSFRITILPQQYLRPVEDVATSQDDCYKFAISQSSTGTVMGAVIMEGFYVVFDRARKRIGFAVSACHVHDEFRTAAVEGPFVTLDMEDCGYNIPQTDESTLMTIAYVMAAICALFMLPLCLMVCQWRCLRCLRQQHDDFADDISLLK

| Molecule | Ki [1] | inhibition at 0.3 µM ([2]; 0.3 μM test compound) | inhibition at 1 µM ([2]; 1 μM test compound) | inhibition at 3 µM ([2]; 3 μM test compound) | IC50 [3] | IC50 [1] | inhibition at 10 µM ([2]; 10 μM test compound) | further results |
| --- | --- | --- | --- | --- | --- | --- | --- | --- |
| CCCC(CNC(=O)C1CCCCC1)N1Cc2cc(Oc3ccccc3)ccc2N=C1N (stereo not drawn) [Compound 343] | 0.065 µM | 81% | 101% | 118% | 0.041 µM | – | – | – |
| NC1=Nc2ccc(Oc3ccccc3)cc2CN1C(CNC(=O)c1ccccc1)C1CCCCC1 (stereo not drawn) [Compound 319] | 0.074 µM | 61% | 95% | 120% | 0.053 µM | – | – | – |
| CC(C)(C)OC(=O)NCCCN1Cc2cc(Oc3ccccc3)ccc2N=C1N [Compound 103] | 4 µM | – | – | 56% | – | 3.6 µM | 74% | – |
| NC1=Nc2ccc(C(=O)c3ccccc3)cc2CN1CCCCNC(=O)C1CCCCC1 [Compound 30] | 2.3 µM | – | – | 32% | 11 µM | 20 µM | 48% | – |
| CN(C(=O)c1cc(CN2Cc3cc(Oc4ccccc4)ccc3N=C2N)ccn1)C1CCCCC1 [Compound 89] | – | – | – | 77% | – | 0.4 µM | 81% | – |
| CCCN1Cc2cc(Oc3cccc(N(C(=O)OCc4ccccc4)C4CCCCC4)c3)ccc2N=C1N [Compound 49] | 0.84 µM | – | – | 56% | 0.8 µM | 2.8 µM | 90% | – |
| CN(Cc1cccc2ccccc12)C(=O)CCCCN1Cc2cc(C(=O)c3ccccc3)ccc2N=C1N [Compound 51] | 1.2 µM | – | – | < 30% | 2.2 µM | 13 µM | 56% | – |
| NC1=Nc2ccc(Oc3ccccc3)cc2CN1C(CCNC(=O)C1CCCC1)C1CCCCC1 (stereo not drawn) [Compound 392] | 0.16 µM | 75% | 116% | 120% | 0.093 µM | – | – | – |
| 3-(2-Amino-6-phenoxy-4H-quinazolin-3-yl)-pentanedioic acid bis-(cyclohexyl-methyl-amide) [Compound 107] | 1.2 µM | – | – | – | 0.82 µM | 4.58 µM | – | % Inhibition ([2]; 3 μM test compound): 48%; % Inhibition ([2]; 10 μM test compound): 78% |
| CC(C)(C)OC(=O)NCCCCN1Cc2cc(Oc3ccccc3)ccc2N=C1N [Compound 101] | – | – | – | 45% | – | 11 µM | 64% | – |
| NC1=Nc2ccc(Oc3ccccc3)cc2CN1C(CCNC(=O)CC1CCCC1)C1CCCCC1 (stereo not drawn) [Compound 393] | 0.29 µM | < 30% | 52% | 113% | 0.15 µM | – | – | – |
| CN(CCCN1Cc2cc(C(=O)c3ccccc3)ccc2N=C1N)C1CCCCC1 [Compound 15, {2-Amino-3-[3-(cyclohexyl-methyl-amino)-propyl]-3,4-dihydro-quinazolin-6-yl}-phenyl-methanone] | 4 µM | – | – | 42% | 2.3 µM | – | 69% | – |
| CN(C(=O)CCN1Cc2cc(Oc3ccccc3)ccc2N=C1N)C1CCCCC1 [Compound 20, 3-(2-Amino-6-phenoxy-4H-quinazolin-3-yl)-N-cyclohexyl-N-methyl-propionamide] | 0.34 µM | – | – | 68% | 0.48 µM | 2.1 µM | 83% | – |
| CCCN1Cc2cc(Oc3cccc(NS(=O)(=O)c4ccccc4)c3)ccc2N=C1N [Compound 61] | 0.23 µM | – | – | 75% | 0.2 µM | 0.44 µM | 87% | – |
| NC1=Nc2ccc(Oc3ccccc3)cc2CN1C(CCNC(=O)C1CCCCC1)C1CCCCC1 (stereo not drawn) [Compound 391] | 0.1 µM | 35% | 93% | 115% | 0.054 µM | – | – | – |
| NC1=Nc2ccc(Oc3ccccc3)cc2CN1C(CNC(=O)CCC1CCCC1)C1CCCCC1 (stereo not drawn) [Compound 366] | 0.067 µM | 64% | 113% | 119% | – | – | – | – |
| CCCC(CCCC(=O)N(CC)C1CCCCC1)N1Cc2cc(Oc3ccccc3)ccc2N=C1N (stereo not drawn) [Compound 105] | – | – | – | – | – | – | – | % Inhibition ([2]; 3 μM test compound): <30%; % Inhibition ([2]; 10 μM test compound): <30%; % Inhibition (FS) 0.3 μM ([4]; 0.3 μM test compound): <30%; % Inhibition (FS) 1 μM ([4]; 1 μM test compound): <30%; % Inhibition (FS) 3 μM ([4]; 3 μM test compound): <30% |

| Molecule | Ki [1] | inhibition at 0.3 µM ([2]; 0.3 μM test compound) | inhibition at 1 µM ([2]; 1 μM test compound) | inhibition at 3 µM ([2]; 3 μM test compound) | IC50 [3] | IC50 [1] | inhibition at 10 µM ([2]; 10 μM test compound) | further results |
| --- | --- | --- | --- | --- | --- | --- | --- | --- |
| NC1=Nc2ccc(C(=O)c3ccccc3)cc2CN1CCCCC(=O)N(C1CCCCC1)C1CCCCC1 [Compound 46] | 0.6 µM | – | – | 66% | 0.6 µM | 2.1 µM | 82% | – |
| NC1=Nc2ccc(C(=O)c3ccccc3)cc2CN1CCNC(=O)C1CCCCC1 [Compound 7, Cyclohexanecarboxylic acid [2-(2-amino-6-benzoyl-4H-quinazolin-3-yl)-ethyl]-amide] | 0.24 µM | – | – | 76% | 1.4 µM | 5.3 µM | 87% | – |
| CCCC(CNC(=O)OC(C)(C)C)N1Cc2cc(Oc3ccccc3)ccc2N=C1N (stereo not drawn) [Compound 318] | 0.19 µM | 32% | 70% | 103% | 0.25 µM | – | – | – |
| CC(C)CC(=O)NCC(C1CCCCC1)N1Cc2cc(Oc3ccccc3)ccc2N=C1N (stereo not drawn) [Compound 389] | 0.028 µM | 85% | 112% | 120% | – | – | – | – |
| CCCN1Cc2cc(Oc3cccc(NC4CCCCC4)c3)ccc2N=C1N [Compound 53] | 0.82 µM | – | – | 34% | 1 µM | 6.8 µM | 82% | – |
| CN(C(=O)CCC(CCC(=O)N(C)C1CCCCC1)N1Cc2cc(Oc3ccccc3)ccc2N=C1N)C1CCCCC1 [Compound 84, 4-(2-Amino-6-phenoxy-4H-quinazolin-3-yl)-heptanedioic acid bis-(cyclohexyl-methyl-amide)] | 0.76 µM | – | – | 38% | 0.47 µM | 3.1 µM | 63% | – |
| NC1=Nc2ccc(Oc3ccccc3)cc2CN1CCCCC(=O)N(C1CCCCC1)C1CCCCC1 [Compound 19] | 0.38 µM | – | – | 67% | 0.18 µM | 1.6 µM | 92% | – |
| NC1=Nc2ccc(Oc3ccccc3)cc2CN1CCC(=O)NC12CC3CC(CC(C3)C1)C2 [Compound 365] | 0.1 µM | < 30% | 86% | 113% | – | – | – | – |
| NC1=Nc2ccc(Oc3ccccc3)cc2CN1C(CNC(=O)C1CCCCC1)c1ccccc1 (stereo not drawn) [Compound 342] | 0.19 µM | 50% | 93% | 119% | 0.082 µM | – | – | – |
| CN(CCc1ccccc1)C(=O)CCCCN1Cc2cc(C(=O)c3ccccc3)ccc2N=C1N [Compound 50] | 0.53 µM | – | – | < 30% | 1 µM | 11 µM | 34% | – |
| CCN(CC)CCN1Cc2cc(Oc3ccccc3)ccc2N=C1N [Compound 79] | – | – | – | – | – | – | – | % Inhibition ([2]; 3 μM test compound): <30%; % Inhibition ([2]; 10 μM test compound): <30% |
| CN(C(=O)[C@@H]1CCCC[C@@H]1N1Cc2cc(Oc3ccccc3)ccc2N=C1N)C1CCCCC1 [Compound 87] | – | – | – | – | – | – | – | % Inhibition ([2]; 3 μM test compound): <30%; % Inhibition ([2]; 10 μM test compound): <30% |
| NC1=Nc2ccc(Oc3ccccc3)cc2CN1Cc1cccc(CNC(=O)C(c2ccccc2)c2ccccc2)c1 [Compound 337] | – | – | – | – | – | – | – | % Inhibition ([2]; 0.3 μM test compound): <30%; % Inhibition ([2]; 1 μM test compound): <30%; % Inhibition ([2]; 3 μM test compound): <30% |
| CN(C(=O)[C@@H]1CCCN1C(=O)CN1Cc2cc(Oc3ccccc3)ccc2N=C1N)C1CCCCC1 [Compound 88] | – | – | – | – | – | – | – | % Inhibition ([2]; 3 μM test compound): <30%; % Inhibition ([2]; 10 μM test compound): <30% |
| CC(C)(C)C(=O)NCC(C1CCCCC1)N1Cc2cc(Oc3ccccc3)ccc2N=C1N (stereo not drawn) [Compound 317] | – | – | – | – | – | – | – | % Inhibition ([2]; 0.3 μM test compound): <30%; % Inhibition ([2]; 1 μM test compound): 66%; % Inhibition ([2]; 3 μM test compound): 107% |
| CC(C)(C)OC(=O)N1CCC(N2Cc3cc(Oc4ccccc4)ccc3N=C2N)C1 (stereo not drawn) [Compound 93] | – | – | – | – | – | – | – | % Inhibition ([2]; 3 μM test compound): <30%; % Inhibition ([2]; 10 μM test compound): <30% |
| CC(C)(C)OC(=O)NCC(C1CCCCC1)N1Cc2cc(Oc3ccccc3)ccc2N=C1N (stereo not drawn) [Compound 367] | 0.12 µM | < 30% | 80% | 111% | – | – | – | – |
